A short description of the data set: Stability of ADBAC solutions. The class given is physicochemical. The text has this:
The principal antibacterial ingredient in these formulations is alkyl dimethyl benzyl ammonium chloride (ADBAC). ADBAC is effective in killing the bacteria associated with mastitis in milking animals, and is not an oxidant. It also has a slight detergent action and so assists in cleaning dirt off of the animal's teats. […] It is inexpensive and is obtained commercially in a convenient dry form under the trade name TIMSEN. In TIMSEN, urea is used as a carrier and a buffer in a weight ratio of about three parts urea to two parts ADBAC by weight. Urea will be in the sanitizing fluid when TIMSEN is used as the stock source for ADBAC, however, it will be understood that urea is not an active ingredient in these formulations.

In the case of “alkyl dimethyl benzyl ammonium chloride [ADBAC]”, the stability of solutions entry is recorded as “stable for over a year”.

These data come from US20040047829A1, “Fluids for sanitizing the teats of dairy animals” (priority 2002, published 2004).
